What was measured:
[1] = tested on: oxazolone-induced atopic dermatitis, Balb/c mice; assay: Oxazolone-induced atopic dermatitis model in Balb/c mice; type: in vivo; conditions: BID, oral, days 8-28
Protocol: Female, Balb/c mice (6 weeks old, 20±3 g) were purchased from OrientBio Co., Ltd. The animals were housed under conditions of controlled temperature (23±3° C.), humidity (50±5%) and lighting with food and water available ad libitum.
On the beginning day (day 1), mice were sensitized by the topical application of 50 μL of 1% oxazolone in acetone and olive oil (4:1 ratio) on the abdominal skin. On day 8, 10, 12, 15, 17, 19, 22, 24 and 26, 25 μL of 0.2% oxazolone was applied topically on the inner side of right ear of each mouse. Between days 8 and 28, the compound of the invention was administered orally (10 mL/kg) twice a day in the morning and afternoon, and on days 12, 19 and 27, the thickness of the right ear of the mouse was measured. On day 28, the ear tissue of the mouse was extracted, fixed in 10% formalin solution, and then a tissue slide was prepared, stained with H&E (hematoxylin & eosin), and then the thickness of the ear was observed (Journal of Investigative Dermatology, 2008, 128, 79-86). Statistical analysis was analyzed using one-way ANOVA with Dunnett test. Values of p<0.05 were considered statistically significant.

[2] = tested on: histamine-induced mast cell migration (trachea); assay: Histamine-induced mast cell migration; type: in vivo, Balb/c mice; conditions: 20 mg/kg oral, 0.1 M histamine aerosol, 2 days
Protocol: Female, Balb/c mice (7 weeks old, 20±3 g) were purchased from OrientBio Co., Ltd.
The animals were housed under conditions of controlled temperature (23±3° C.), humidity (50±5%) and lighting with food and water available ad libitum.
Mice were dosed with either vehicle (20% cyclodextrin in second distilled water) or the compound by orally administration. The Compound (20 mg/kg) dissolved in a vehicle and administered orally at a volume of 10 mL/kg. After 15 minutes, mice were challenged by a 20 min aerosol inhalation of PBS (phosphate buffered saline) or 0.1 M histamine (dissolving in PBS). This process was repeated for 2 days. After a final challenge, the tracheae were cleared of blood via perfusion of PBS and tracheae were extracted, the tracheae were fixed in 10% (w/v) formaldehyde for subsequent paraffin cross-sectioning and toluidine blue staining. Total mast cells were calculated, and a mean was reported. (The Journal of Pharmacology and Experimental Therapeutics, 2004, 309, 404-413). Statistical analysis was analyzed using one-way ANOVA with Dunnett test. Values of p<0.05 were considered statistically significant.

[3] = tested on: Dermatophagoides farina-induced atopic dermatitis, NC/Nga mice; assay: Dermatophagoides farina-induced atopic dermatitis NC/Nga mouse model; type: in vivo; conditions: BID, oral, 3 weeks, control group (Df) 9.0
Protocol: Female, NC/Nga mice (3 weeks old, 15-17 g) were purchased from Central Lab. Animal Inc. The animals were housed in conditions of controlled temperature (23±3° C.), humidity (50±5%) and lighting with food and water available ad libitum.
The hair of back of the mice was shaved with clipper, and the remaining hair was removed completely using shaving cream. For barrier disruption, 150 μL of 4% sodium dodecyl sulfate (SDS) was applied to the shaved back skin The Df ointment (100 mg/mouse) was applied twice a week for 3 weeks. The compound were administered orally twice a day in the morning and afternoon for 3 weeks, and then the severity of dermatitis was evaluated on days 2, 7, 10, 14 and 21. The development of (1) erythema/haemorrhage, (2) scarring/dryness, (3) oedema, (4) excoriation/erosion was scored as 0 (none), 1 (mild), 2 (moderate) and 3 (severe). The total skin score was defined as the sum of the individual scores. (Scandinavian Journal of Immunol. 2011, 73, 536-545). Statistical analysis was analyzed using one-way ANOVA with Dunnett test. Values of p<0.05 were considered statistically.

| SMILES | Ear epidermis thickness (% change from control group) ([1]; 50 mg/kg) [%] | Mast cell migration (% change from control group) [2] | Ear epidermis thickness (% change from control group) ([1]; 100 mg/kg) | Scoring of Skin lesions (day 21) ([3]; 25 mg/kg) | Scoring of Skin lesions (day 21) ([3]; 50 mg/kg) |
| --- | --- | --- | --- | --- | --- |
| CNC1CN(c2nc3ncc(Br)cc3n3nnnc23)C1 [Compound 95, 1-(8-Bromopyrido[2,3-e]tetrazolo[1,5-a]pyrazin-4-yl)-N-methylazetidin-3-amine] | 34.9 |  |  |  |  |
| Clc1cnc2nc(N3CCNCC3)c3nncn3c2c1 [Compound 7, 8-Chloro-4-(piperazin-1-yl)pyrido[2,3-e][1,2,4]triazolo[4,3-a]pyrazine] |  | 43.1^1% |  |  |  |
| CN1CCN(c2nc3ncc(Cl)cc3n3cnnc23)CC1 [Compound 4, 8-Chloro-4-(4-methylpiperazin-1-yl)pyrido[2,3-e][1,2,4]triazolo[4,3-a]pyrazine] |  | 70.3^1% | 47.2% |  |  |
| CNC1CN(c2nc3ncc(Br)cc3n3cnnc23)C1 [Compound 24, 1-(8-Bromopyrido[2,3-e][1,2,4]triazolo[4,3-a]pyrazin-4-yl)-N-methylazetidin-3-amine] |  | 60.0^1% | 51.2^1% | 7.2 | 4.4^1 |

Reference: US9586959B2, “Substituted tricyclic heterocycles as histamine 4 receptor inhibitors” (C&C RESEARCH LABORATORIES, priority 2011, dated 2017)
